According to the NIST ThermoML archive (doi:10.1016/j.jct.2011.01.014):

Assay: xn = mol fraction of the nth substance listed
Details: 101 kPa, Liquid; for mass density: Vibrating tube method; for speed of sound: sound velocity cell

CC(=O)[O-].[NH3+]CCO [2-hydroxyethylammonium acetate] + CCO
Details	mass density [kg/m3]	speed of sound [m/s]
288.15 K, x1 = 0.0497	830.092	1219.7
288.15 K, x1 = 0.101	862.917	1257.7
288.15 K, x1 = 0.201	917.271	1327
288.15 K, x1 = 0.3009	964.134	1410
288.15 K, x1 = 0.4057	1005.85	1470.2
288.15 K, x1 = 0.4946	1036.29	1529.9
288.15 K, x1 = 0.603	1068.79	1601.6
288.15 K, x1 = 0.6765	1088.47	1646.3
288.15 K, x1 = 0.7918	1116.27	1707.9
288.15 K, x1 = 0.8825	1135.66	1756.7
288.15 K, x1 = 0.9539	1148.76	1806.7
288.15 K, x1 = 1	1154.7	1817.2
290.65 K, x1 = 0.0497	828.024	1211.3
290.65 K, x1 = 0.101	860.918	1249.6
290.65 K, x1 = 0.201	915.381	1319.3
290.65 K, x1 = 0.3009	962.336	1402.9
290.65 K, x1 = 0.4057	1004.14	1463.2
290.65 K, x1 = 0.4946	1034.64	1523
290.65 K, x1 = 0.603	1067.23	1594.9
290.65 K, x1 = 0.6765	1086.9	1639.6
290.65 K, x1 = 0.7918	1114.76	1700.5
290.65 K, x1 = 0.8825	1134.02	1749.4
290.65 K, x1 = 0.9539	1147.23	1796
290.65 K, x1 = 1	1153.28	1810
293.15 K, x1 = 0.0497	825.955	1203
293.15 K, x1 = 0.101	858.918	1241.5
293.15 K, x1 = 0.201	913.49	1311.7
293.15 K, x1 = 0.3009	960.535	1395.7
293.15 K, x1 = 0.4057	1002.43	1456.2
293.15 K, x1 = 0.4946	1033	1516.3
293.15 K, x1 = 0.603	1065.67	1588.4
293.15 K, x1 = 0.6765	1085.33	1633.2
293.15 K, x1 = 0.7918	1113.26	1693.3
293.15 K, x1 = 0.8825	1132.52	1741.7
293.15 K, x1 = 0.9539	1145.67	1786.6
293.15 K, x1 = 1	1151.87	1803.2
295.65 K, x1 = 0.0497	823.881	1194.7
295.65 K, x1 = 0.101	856.913	1233.5
295.65 K, x1 = 0.201	911.596	1304
295.65 K, x1 = 0.3009	958.737	1388.5
295.65 K, x1 = 0.4057	1000.73	1449.2
295.65 K, x1 = 0.4946	1031.36	1509.6
295.65 K, x1 = 0.603	1064.1	1582
295.65 K, x1 = 0.6765	1083.81	1626.8
295.65 K, x1 = 0.7918	1111.76	1686.5
295.65 K, x1 = 0.8825	1131.06	1734.5
295.65 K, x1 = 0.9539	1144.09	1778
295.65 K, x1 = 1	1150.45	1796.8
298.15 K, x1 = 0.0497	821.798	1186.5
298.15 K, x1 = 0.101	854.902	1225.5
298.15 K, x1 = 0.201	909.701	1296.4
298.15 K, x1 = 0.3009	956.936	1381.3
298.15 K, x1 = 0.4057	999.015	1442.3
298.15 K, x1 = 0.4946	1029.72	1502.9
298.15 K, x1 = 0.603	1062.53	1575.6
298.15 K, x1 = 0.6765	1082.31	1620.4
298.15 K, x1 = 0.7918	1110.26	1679.8
298.15 K, x1 = 0.8825	1129.61	1727.5
298.15 K, x1 = 0.9539	1142.5	1769.9
298.15 K, x1 = 1	1149.04	1790.7
300.65 K, x1 = 0.0497	819.712	1178.2
300.65 K, x1 = 0.101	852.887	1217.5
300.65 K, x1 = 0.201	907.8	1288.8
300.65 K, x1 = 0.3009	955.132	1374.2
300.65 K, x1 = 0.4057	997.306	1435.3
300.65 K, x1 = 0.4946	1028.07	1496.2
300.65 K, x1 = 0.603	1060.96	1569.2
300.65 K, x1 = 0.6765	1080.8	1614.2
300.65 K, x1 = 0.7918	1108.76	1673.3
300.65 K, x1 = 0.8825	1128.15	1720.9
300.65 K, x1 = 0.9539	1141.04	1762.4
300.65 K, x1 = 1	1147.63	1784.8
303.15 K, x1 = 0.0497	817.614	1170
303.15 K, x1 = 0.101	850.864	1209.5
303.15 K, x1 = 0.201	905.897	1281.2
303.15 K, x1 = 0.3009	953.327	1367
303.15 K, x1 = 0.4057	995.593	1428.4
303.15 K, x1 = 0.4946	1026.43	1489.6
303.15 K, x1 = 0.603	1059.37	1562.8
303.15 K, x1 = 0.6765	1079.28	1608
303.15 K, x1 = 0.7918	1107.26	1667
303.15 K, x1 = 0.8825	1126.69	1714.5
303.15 K, x1 = 0.9539	1139.62	1755.4
303.15 K, x1 = 1	1146.22	1779
305.65 K, x1 = 0.0497	815.509	–
305.65 K, x1 = 0.101	848.835	–
305.65 K, x1 = 0.201	903.988	–
305.65 K, x1 = 0.3009	951.519	–
305.65 K, x1 = 0.4057	993.881	–
305.65 K, x1 = 0.4946	1024.78	–
305.65 K, x1 = 0.603	1057.78	–
305.65 K, x1 = 0.6765	1077.76	–
305.65 K, x1 = 0.7918	1105.75	–
305.65 K, x1 = 0.8825	1125.23	–
305.65 K, x1 = 0.9539	1138.2	–
305.65 K, x1 = 1	1144.8	–
